In patent publication US7381521B2, “Anti-pathogenic composition useful in blood preservation” (Altachem Pharma Ltd., priority 2001, dated 2008):

System: erythrocytes in heparinized bovine blood
Test: In-vitro hemolysis of erythrocytes in heparinized whole blood, absorbance at 413 nm
Conditions: 1 hour at 37° C.
Procedure: The effect of the compounds on the in-vitro hemolysis of erythrocytes in heparinized whole blood is monitored by a spectrophotometric method.
Various formulations and concentrations of the test compound are added to heparinized bovine blood and mixed gently in a 1.5 ml microcentrifuge tube. The sample is allowed to incubate for 1 hour at 37° C. At the end of incubation, the samples are removed from the incubator and centrifuged at 2000 rpm for 5 minutes. A 200 μl aliquot of the supernatant is removed from each sample into a 96 well microtiter plate and read at 413 nm. The absorbance of the test sample is compared to the control sample containing phosphate buffered saline, pH 7.2.

| Compound | Concentration at which hemolysis is not observed [%] |
| --- | --- |
| C[N+](C)(C)CCCCCCCCCC[N+](C)(C)C.[I-].[I-] [Decamethonium Iodide] | 0.0125 |
| C[N+](C)(C)CCCCCC[N+](C)(C)C [Hexamethonium Bromide] | 0.0125 |
| Tergitol NP-9 | 0.001 |
